“Also recorded” adds a separate entry of the source.
Key:
rat mammary tumor = assay: Biodistribution of 125I-NM324 in rat mammary tumor model; format: in vivo
[1] = biological target: T1, PLC isolated from Bacillus cereus (Bacillus cereus, UniProt P09598); assay: PLC substrate assay; format: biochemical
T1 construct: PLC isolated from Bacillus cereus; endogenous in cells; host or cells: Bacillus cereus
Protocol: (§1) Formal metabolism studies were conducted on several PLE analogs including NM324, the predecessor of NM404. In these studies, each agent was examined to determine its ability to serve as substrates for enzymes associated with PLE metabolism. Three major enzymatic pathways are involved in the metabolism of PLE. O-Alkyl glycerol monooxygenase (AGMO) is responsible for cleavage of the alkyl ether linkage at C-1 to form either the long chain fatty alcohol or subsequently, the corresponding fatty acid. Phospholipases C (PLC) and D (PLD), on the other hand, give rise to the glycerol or phosphatidic acid products, respectively.

serum proteins = conditions: cited from earlier work
[2] = tested on: carrageenan-induced granulomas; assay: Uptake into inflammatory lesions; design: species or system rats; conditions: rat, in vivo
From the text: The utility of tumor tracers like ^67Ga-citrate and ^18F-FDG is limited by their lack of specificity to distinguish neoplasm from inflammation. Further, accumulation of FDG in the urine interferes with visualization of pelvic and abdominal abnormalities. This lack of specificity is a significant clinical issue in patients with cancer. […] Some exemplary embodiments of PLE analogs discussed herein are illustrated in FIG. 1. […] Although FDG-PET has paved the way for hybrid imaging, its lack of tumor cell specificity will always limit its diagnostic efficacy. New molecularly targeted agents, like NM404, which display universal tumor uptake and selective retention regardless of location, as well as selectivity for malignant tumor cells and not inflammatory or hyperplastic lesions, represents a significant improvement in the detection, targeting and characterization of cancer.

animal tumor models [3] = conditions: radioiodinated analogs, xenograft and spontaneous tumor rodent models, previous reports; cited from earlier work
[4] = biological target: T2, O-Alkyl glycerol monooxygenase (AGMO) (Homo sapiens, UniProt Q6ZNB7); assay: Microsomal AGMO substrate assay; format: biochemical; conditions: microsomal enzyme preparation
T2 construct: Using a microsomal AGMO enzyme preparation; from tissue
Protocol: as §1

human lung cancer = assay: Clinical evaluation of NM324, scintigraphy; format: in vivo; conditions: for tumor uptake / detection: scintigraphy in lung cancer patients
From the text: FIG. 10 is a scintigraphic image of the anterior chest of Patient 03 acquired at 1, 2, and 6 days after iv administration of 1 mCi ^131I-NM324.
Based upon this work, NM404 [18-(4-iodophenyl)-octadecyl phosphocholine] emerged due to its enhanced ability to localize in tumor, its increased metabolic clearance from the liver, and its longer plasma half-life.

animal tumor models [5] = assay: Imaging and biodistribution across animal tumor models (general statements); conditions: mammary, prostate, squamous cell carcinoma, ovarian, colorectal, melanoma
From the text: See, for example, U.S. patent application Ser. Nos. 10/906,687, 11/177,740, 11/316,620 and 11/382,645. Due to deficiencies in metabolic phospholipase enzymes in the membranes of malignant tumor cells, the prevailing hypothesis for this specificity is that phospholipid ether analogs become trapped exclusively in tumor cell membranes because of their inability to become metabolized and eliminated by the cancerous cell. Thus, the differential clearance rates of phospholipid ethers from normal cells versus neoplastic tumor cells are responsible for this specificity.
The reason for the retention of PLE and analogs in cancer cells remains unknown. Without being held to any particular theory, however, the prevailing hypothesis, is that radioiodinated PLE and APC analogs become trapped in tumor cell membranes because of their inability to be metabolized and eliminated. On the other hand, such lipid molecules are metabolized and cleared by normal tissues, including the liver.
These PLE analogs are specifically designed to incorporate aromatic radioiodine in order to render the molecule stable towards in vivo deiodination.

Blood plasma kinetics = assay: Blood plasma kinetics; design: species or system rats; conditions: rat, in vivo
Prostate MatLyLu = assay: Gamma camera scintigraphy screen in Dunning R3327 (MAT LyLu) prostate cancer model; format: in vivo, Copenhagen rats; conditions: radioiodinated analog 30-40 μCi, images incl. 24 and 48 hours post injection
Protocol: The avidity of PLE and APC analogs to localize in tumors was evaluated in several animal models. The PC-3 model represents a human tumor cell line that was used to determine the target (tumor) to non-target ratio of NM404 and NM412 in head to head comparison in order to select a candidate for an initial human pharmacokinetic trial in prostate cancer patients. The MatLyLu (Dunning R3327 rat) model, a rat prostate tumor line, was used specifically to screen 9 specific analogs prior to entering them into control for dosimetry and tumor-bearing animals for determining tumor/background ratios. Finally, the Walker-256 carcinosarcoma model was used for quantitative tissue distribution purposes.
In order to expedite the screening process and minimize the number of tumor bearing animals utilized in multiple time point tissue distribution studies, new radioiodinated homologs were imaged by gamma camera scintigraphy in the rat Dunning […] (MAT LyLu strain) prostate cancer model. Thus, male Copenhagen rats received a subcutaneous injection of MAT LyLu cells (1×10^6 cells) in the thigh 10-14 days prior to injection of the radioiodinated PLE analogs (30-40 μCi) in 2% Tween-20 solution. Gamma camera images were obtained at multiple time points including 24 and 48 hours post injection. […] Tissue distribution of radioactivity in rats bearing Walker-256 carcinosarcoma was assessed at various time intervals following intravenous administration of the radioiodinated chain length homologs. The first group of compounds that was tested included three alkylphosphocholines: a shorter chain analog with seven carbons NM396 and two analogs with a longer chain length, 13 (NM397, C15 alkyl chain length) and 1 (NM404, C18 alkyl chain length).
In order to decrease liver uptake and prolong the plasma phase, the inventors examined 9 structural analogs of NM324 to identify agents that would display improved tumor-to-background tissue ratios with decreased liver uptake. The new PLE analogs were synthesized and radiolabeled with ^125I for initial image analysis in Copenhagen rats bearing Dunning R3327 prostate tumors. […] NM404 was therefore selected to undergo further imaging and biodistribution analysis in a variety of animal-tumor models.

[6] = tested on: human PC-3 prostate tumor xenografts; assay: Scintigraphy, microPET and tissue distribution in PC-3 tumor model; format: in vivo, SCID mice; conditions: advanced metastatic PC-3, 48 h post iv injection
[7] = tested on: non-small cell lung cancer (NSCLC); assay: Initial human pharmacokinetic evaluation, planar gamma-camera scintigraphy; format: in vivo; conditions: <1 mCi injection, preliminary, n=3
From the text: FIG. 6A-C images of lung cancer patient, posterior whole body planar nuclear medicine image (A) 4 days after iv administration of ^131I-NM404 (0.8 mCi) to a patient with non small cell lung cancer (6 cm dia., arrow). Lung tumor is easily detected in corresponding axial (B) and coronal (C) computed tomography (CT) scans;
In preparation for human clinical trials, unlabeled NM404 was subjected to independent (University of Buffalo Toxicology Research Center) acute toxicity evaluation at 1200 times the anticipated imaging mass dose in rats and rabbits. […] Due to its selective tumor uptake and retention properties in a variety of rodent tumor models and subsequent excellent safety profile in rats and rabbits, NM404 was selected to undergo initial human pharmacokinetic evaluation in non-small cell lung cancer (NSCLC) patients. Patients underwent planar gamma-camera scintigraphy after receiving an injection of ^131I-NM404 (<1 mCi).

[8] = excess boron ingestion; cited from earlier work

T1 sequence (P09598 39-283 limits assumed): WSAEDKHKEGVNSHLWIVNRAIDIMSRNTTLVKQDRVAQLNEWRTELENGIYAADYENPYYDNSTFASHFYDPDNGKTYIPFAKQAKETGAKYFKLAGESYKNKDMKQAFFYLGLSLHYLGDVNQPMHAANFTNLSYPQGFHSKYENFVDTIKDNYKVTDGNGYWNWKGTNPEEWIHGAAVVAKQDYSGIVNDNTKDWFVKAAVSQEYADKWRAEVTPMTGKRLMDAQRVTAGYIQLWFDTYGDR
T2 sequence (Q6ZNB7 whole entry, species assumed): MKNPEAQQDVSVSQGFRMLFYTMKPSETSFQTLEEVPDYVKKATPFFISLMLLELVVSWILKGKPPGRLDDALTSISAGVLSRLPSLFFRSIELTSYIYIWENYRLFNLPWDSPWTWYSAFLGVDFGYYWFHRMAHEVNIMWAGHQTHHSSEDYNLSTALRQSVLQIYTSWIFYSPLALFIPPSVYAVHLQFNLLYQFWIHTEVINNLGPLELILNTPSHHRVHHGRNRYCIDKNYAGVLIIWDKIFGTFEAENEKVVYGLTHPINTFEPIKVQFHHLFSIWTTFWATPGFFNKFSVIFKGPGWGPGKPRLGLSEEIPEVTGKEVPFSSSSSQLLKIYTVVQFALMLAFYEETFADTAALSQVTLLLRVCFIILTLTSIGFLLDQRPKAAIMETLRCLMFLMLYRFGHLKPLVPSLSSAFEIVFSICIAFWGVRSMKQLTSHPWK

C[N+](C)(C)CCOP(=O)([O-])OCCCCCCCCCCCCc1cccc([125I])c1 [Compound 125I-NM324]
tumor-to-blood ratio (rat mammary tumor; 96 hours): 8.6 | time of maximum tumor-to-normal tissue ratios (rat mammary tumor; rat, in vivo): 96 h

[3H]C(CCCCCC)C([3H])CCCCCCCC(=O)O[C@H](COC(=O)CCCCCCCCCCCCCCC)COP(=O)([O-])OCC[N+](C)(C)C (stereo partly drawn) [DPPC, 1-palmitoyl-2-[^3H]-palmitoyl-L-3-phosphatidylcholine, reference compound]
hydrolysis by PLC [1]: underwent significant hydrolysis

CCCCCCCCCCCCCCCCCCOCC(COP(=O)([O-])OCC[N+](C)(C)C)OC (stereo not drawn) [ET-18-OCH3]
ether lipid bound to HDL (serum proteins): about 6% | ether lipid bound to albumin (serum proteins): 71%

O=C([O-])CC(O)(CC(=O)[O-])C(=O)[O-].[Ga+3] [Gallium citrate, reference compound]
uptake and retention in granulomas [2]: concentrate significantly in the granulomatous lesions

COC(COCCCCCCCCCCCCc1cccc([125I])c1)COP(=O)([O-])OCC[N+](C)(C)C (stereo not drawn) [NM294]
selective retention by tumors (animal tumor models [3]): selectively retained by a variety of human and animal tumors

C[N+](C)(C)CCOP(=O)([O-])OCCCCCCCCCCCCc1cccc(I)c1 [NM324, 12-(m-iodophenyl)dodecyl phosphocholine]
substrate for AGMO [4]: not a substrate | liver uptake (human lung cancer; initial human pharmacokinetic studies): high liver uptake values; also recorded: unacceptable accumulation in liver tissue; also recorded: images were complicated by high liver radioactivity | tumor uptake / detection (human lung cancer): detected tumors | uptake and retention in granulomas [2]: no uptake and retention | selective retention by tumors (animal tumor models [3]): selectively retained by a variety of human and animal tumors | tumor visualization by scintigraphy (animal tumor models [5]): successfully visualized | elimination half life time in plasma (Blood plasma kinetics): 2.43 h | hydrolysis by PLC [1]: not hydrolyzed

COC(COCCCCCCCCCCCCCCCCCCc1ccc(I)cc1)COP(=O)([O-])OCC[N+](C)(C)C (stereo not drawn) [NM410]
gamma camera imaging findings (tumor, liver, abdomen) (Prostate MatLyLu): high hepatic uptake, significant abdominal accumulation and retention or poor tumor uptake and retention; also recorded: high radioactivity levels in the liver and abdomen with little to no uptake of the agent into tumors

C[N+](C)(C)CCOP(=O)([O-])OCCCCCCCCCCCCCCCCCCc1ccc([124I])cc1 [^124I-NM404]
microPET uptake in primary tumor and lymph nodes [6]: significant uptake

C[N+](C)(C)CCOP(=O)([O-])OCCCCCCCCCCCCc1cccc([131I])c1 [^131I-NM324]
tumor uptake / detection (human lung cancer): Uptake is seen in the left lingular lung cancer (T) with increasing tumor-to-background ratios over time

C[N+](C)(C)CCOP(=O)([O-])OCCCCCCCCCCCCCCCCCCc1ccc([131I])cc1 [^131I-NM404]
tumor uptake and retention [7]: tumor uptake and prolonged retention in primary lung tumors

OB(O)O [boric acid]
excretion [8]: excreted rapidly in the urine | time to disappearance [8]: ≤ 4 days

— patent US8022235B2, “Compositions of phospholipid ether boronic acids and esters and methods for their synthesis and use” (Cellectar, Inc., priority 2007, dated 2011)
